Values joined by “and” are separate entries in the source; they are usually repeats but may differ in a detail not shown here. Equal values may be shown once. Inconclusive results and toxic doses are left out.

In this test the test system is P388 leukemia ip, CD2F1 mice, survival T/C. In words: NCI In Vivo Anticancer Drug Screen. Data for tumor model P388 Leukemia (intraperitoneal) in CD2F1 (CDF1) mice. The conditions noted are these: endpoint: median survival time, higher = longer survival. A digest of the protocol:
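Mice carrying the transplanted tumor received test compound or vehicle. Survival was recorded in each group, and the value is the treated-group measurement divided by that of the vehicle-treated control group.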

[1] abbreviates: dose: 50.0 mg/kg/injection, schedule: Q01DX009 (ip), vehicle: saline with Tween-80.
The mark [2] stands for this setting: dose: 100.0 mg/kg/injection, schedule: Q01DX009 (ip), vehicle: saline with Tween-80.
Setting [3] is: dose: 200.0 mg/kg/injection, schedule: Q01DX009 (ip), vehicle: saline with Tween-80.
[4] abbreviates: dose: 50.0 mg/kg/injection, schedule: Q01DX009 (ip), vehicle: saline.
Setting [5] is: dose: 100.0 mg/kg/injection, schedule: Q01DX009 (ip), vehicle: saline.
Where [6] appears, read: dose: 200.0 mg/kg/injection, schedule: Q01DX009 (ip), vehicle: saline.
Setting [7] is: dose: 50.0 mg/kg/injection, schedule: Q01DX009 (ip), vehicle: Klucel (hydroxypropylcellulose) (HPC).
The mark [8] stands for this setting: dose: 100.0 mg/kg/injection, schedule: Q01DX009 (ip), vehicle: Klucel (hydroxypropylcellulose) (HPC).
Where [9] appears, read: dose: 200.0 mg/kg/injection, schedule: Q01DX009 (ip), vehicle: Klucel (hydroxypropylcellulose) (HPC).
The mark [10] stands for this setting: dose: 50.0 mg/kg/injection, schedule: Q01DX005 (ip), vehicle: saline with Tween-80.
Setting [11] is: dose: 200.0 mg/kg/injection, schedule: Q01DX005 (ip), vehicle: saline with Tween-80.

For `Cn1nc(-c2ccccc2)c(-c2ccccc2)c(C#N)c1=O`, the T/C (dose: 25.0 mg/kg/injection, schedule: Q04DX002 (ip), vehicle: distilled water + Tween-80) was 109 % of control; the T/C (dose: 50.0 mg/kg/injection, schedule: Q04DX002 (ip), vehicle: distilled water + Tween-80) is 102 % of control; the T/C (dose: 100.0 mg/kg/injection, schedule: Q04DX002 (ip), vehicle: distilled water + Tween-80) was 101 % of control; the T/C (dose: 200.0 mg/kg/injection, schedule: Q04DX002 (ip), vehicle: distilled water + Tween-80) is 100 % of control.

For `Clc1cc[c]([Sn]([Cl])([O][Sn]([Cl])([c]2ccc(Cl)cc2)[c]2ccc(Cl)cc2)[c]2ccc(Cl)cc2)cc1`, the T/C (dose: 3.12 mg/kg/injection, schedule: Q01DX005 (ip), vehicle: saline) was 103 % of control; the T/C (dose: 6.25 mg/kg/injection, schedule: Q01DX005 (ip), vehicle: saline) is 108 % of control; the T/C (dose: 12.5 mg/kg/injection, schedule: Q01DX005 (ip), vehicle: saline) is 119 % of control; the T/C (dose: 25.0 mg/kg/injection, schedule: Q01DX005 (ip), vehicle: saline) was 162 % of control.

For the compound `CCN(CC)CCNc1ccc(C)c2sc3c(N)cccc3c(=O)c12`, the T/C is 100 % of control under setting [1], 113 % of control under setting [2] and 123 % of control under setting [3].

For the compound `NC(=O)c1cc(C(Cl)Cl)ccn1`, the T/C is 100 % of control (dose: 60.0 mg/kg/injection, schedule: Q01DX005 (ip), vehicle: Klucel (hydroxypropylcellulose) (HPC)); 99 % of control (dose: 120.0 mg/kg/injection, schedule: Q01DX005 (ip), vehicle: Klucel (hydroxypropylcellulose) (HPC)); 93 % of control (dose: 240.0 mg/kg/injection, schedule: Q01DX005 (ip), vehicle: Klucel (hydroxypropylcellulose) (HPC)).

`CN(C)c1ccc(C(N)=O)cn1`: the T/C runs as follows: (dose: 1.56 mg/kg/injection, schedule: Q01DX009 (ip), vehicle: saline with Tween-80) 109 % of control; (dose: 6.25 mg/kg/injection, schedule: Q01DX009 (ip), vehicle: saline with Tween-80) 90 % of control; (dose: 12.5 mg/kg/injection, schedule: Q04DX003 (ip), vehicle: saline with Tween-80) 109 % of control; (dose: 25.0 mg/kg/injection, schedule: Q04DX003 (ip), vehicle: saline with Tween-80) 118 % of control; (dose: 50.0 mg/kg/injection, schedule: Q04DX003 (ip), vehicle: saline with Tween-80) 118 % of control.

Regarding `CC(C)OC(=O)C(C)(C)Oc1ccc(C(=O)c2ccc(Cl)cc2)cc1`, the T/C was 111 % of control under setting [1], 98 % of control under setting [2] and 97 % of control under setting [3].

As for `N#C/C(=N\O)C(N)=O`, the T/C (dose: 25.0 mg/kg/injection, schedule: Q01DX009 (ip), vehicle: saline) is 92 % of control; the T/C under setting [4] was 105 % of control; the T/C under setting [5] was 105 % of control; the T/C under setting [6] is 98 % of control.

With `Oc1ccc(Nc2c3ccccc3nc3c2ccc2ccccc23)cc1CN(CCCl)CCCl`, the T/C was 194 % of control (dose: 7.2 mg/kg/injection, schedule: Q04DX003 (ip), vehicle: saline); 205 % of control (dose: 11.0 mg/kg/injection, schedule: Q04DX003 (ip), vehicle: saline); 161 % of control (dose: 16.0 mg/kg/injection, schedule: Q04DX003 (ip), vehicle: saline).

On to `N#CC(C(=O)C(=O)Nc1ccc(Cl)c(Cl)c1)c1c(Cl)cccc1Cl` (stereo not drawn), for which the T/C runs as follows: (dose: 60.0 mg/kg/injection, schedule: Q01DX005 (ip), vehicle: saline with Tween-80) 102 % of control; (dose: 120.0 mg/kg/injection, schedule: Q01DX005 (ip), vehicle: saline with Tween-80) 97 % of control; (dose: 240.0 mg/kg/injection, schedule: Q01DX005 (ip), vehicle: saline with Tween-80) 89 % of control.

Regarding `CCOC(=O)CCC(Cl)(Cl)Cl`, the T/C under setting [7] was 100 % of control, the T/C under setting [8] was 100 % of control and the T/C under setting [9] is 97 % of control.

As to `Cc1cn(O)c(=N)c(C(N)=O)n1`, the T/C is, setting by setting: (dose: 37.5 mg/kg/injection, schedule: Q01DX009 (ip), vehicle: saline with Tween-80) 90 % of control; (dose: 75.0 mg/kg/injection, schedule: Q01DX009 (ip), vehicle: saline with Tween-80) 100 % of control; (dose: 150.0 mg/kg/injection, schedule: Q01DX009 (ip), vehicle: saline with Tween-80) 107 % of control.

For the compound `COn1nnc2cc(Cl)ccc21`, the T/C is 107 % of control (dose: 100.0 mg/kg/injection, schedule: Q04DX002 (ip), vehicle: saline with Tween-80); 98 % of control (dose: 200.0 mg/kg/injection, schedule: Q04DX002 (ip), vehicle: saline with Tween-80); 98 % of control (dose: 400.0 mg/kg/injection, schedule: Q04DX002 (ip), vehicle: saline with Tween-80).

`COc1cc(O)c2c(=O)c3c(O)c(O)ccc3oc2c1`: the T/C (dose: 0.63 mg/kg/injection, schedule: Q01DX009 (ip), vehicle: saline) was 108 % of control; the T/C (dose: 1.25 mg/kg/injection, schedule: Q01DX009 (ip), vehicle: saline) is 110 % of control; the T/C (dose: 2.5 mg/kg/injection, schedule: Q01DX009 (ip), vehicle: saline) is 101 % of control; the T/C (dose: 5.0 mg/kg/injection, schedule: Q01DX009 (ip), vehicle: saline) was 100 % of control.

Regarding `CCO/C=N/c1[nH]c(C)c(C)c1C#N`, the T/C by setting is: under setting [7], 93 % of control; under setting [8], 100 % of control; under setting [9], 105 % of control.

Consider `CCCCCCCCCCCCCCCn1nnnc1N`, for which the T/C under setting [10] is 86 % of control; the T/C (dose: 100.0 mg/kg/injection, schedule: Q01DX005 (ip), vehicle: saline with Tween-80) was 91 % of control; the T/C under setting [11] was 96 % of control.

As for `CCOCNC=O`, the T/C is, setting by setting: (dose: 125.0 mg/kg/injection, schedule: Q01DX005 (ip), vehicle: water) 107 % of control; (dose: 250.0 mg/kg/injection, schedule: Q01DX005 (ip), vehicle: water) 100 % of control; (dose: 500.0 mg/kg/injection, schedule: Q01DX005 (ip), vehicle: water) 107 % of control; (dose: 1000.0 mg/kg/injection, schedule: Q01DX005 (ip), vehicle: water) 112 % of control.

Consider `CC(C)(C)OC(=O)C(C(=O)OC(C)(C)C)=C1C(=O)OCC1(C)C`, for which the T/C was 95 % of control (dose: 100.0 mg/kg/injection, schedule: Q04DX003 (ip), vehicle: saline); 103 % of control (dose: 200.0 mg/kg/injection, schedule: Q04DX003 (ip), vehicle: saline); 98 % of control (dose: 400.0 mg/kg/injection, schedule: Q04DX003 (ip), vehicle: saline).

For `O=C1CSC(c2ccc(Cl)cc2)N1CCN1C(=O)CSC1c1ccc(Cl)cc1` (stereo not drawn), the T/C is, setting by setting: (dose: 100.0 mg/kg/injection, schedule: Q04DX003 (ip), vehicle: saline with Tween-80) 95 % of control; (dose: 200.0 mg/kg/injection, schedule: Q04DX003 (ip), vehicle: saline with Tween-80) 93 % of control; (dose: 400.0 mg/kg/injection, schedule: Q04DX003 (ip), vehicle: saline with Tween-80) 88 % of control.

Take `C=C1C2CCC3C(CCC4C35CCC[C@]4(C)CN3CCO[C@H]35)(C2)[C@@H]1O` (stereo partly drawn): the T/C is 108 % of control (dose: 4.0 mg/kg/injection, schedule: Q01DX009 (ip), vehicle: Klucel (hydroxypropylcellulose) (HPC)); 110 % of control (dose: 8.0 mg/kg/injection, schedule: Q01DX009 (ip), vehicle: Klucel (hydroxypropylcellulose) (HPC)); 94 % of control (dose: 16.0 mg/kg/injection, schedule: Q01DX009 (ip), vehicle: Klucel (hydroxypropylcellulose) (HPC)); 99 % of control (dose: 32.0 mg/kg/injection, schedule: Q01DX009 (ip), vehicle: Klucel (hydroxypropylcellulose) (HPC)).

For `C/C(N=NC(=S)N1CCSCC1)=C1\C=CC=CN1O`, the T/C runs as follows: (dose: 12.5 mg/kg/injection, schedule: Q01DX005 (ip), vehicle: saline with Tween-80) 97 % of control; (dose: 25.0 mg/kg/injection, schedule: Q01DX005 (ip), vehicle: saline with Tween-80) 100 % of control; under setting [10], 107 % of control and 97 % of control; under setting [11], 102 % of control.

For the compound `CC(C)=CC1C(C(=O)OCc2ccc3c(c2)OCO3)C1(C)C` (stereo not drawn), the T/C is, setting by setting: under setting [4], 107 % of control; under setting [5], 93 % of control; under setting [6], 99 % of control; (dose: 400.0 mg/kg/injection, schedule: Q01DX009 (ip), vehicle: saline) 104 % of control.

(Values after PubChem BioAssay AID330 (DTP/NCI, 2004).)
